These results are taken from ChEMBL document CHEMBL4000213, “New antiprotozoal agents: Synthesis and biological evaluation of different 4-(7-chloroquinolin-4-yl) piperazin-1-yl)pyrrolidin-2-yl)methanone derivatives” (Bioorg Med Chem Lett, 2017).

One data set concerns Entamoeba histolytica. Put plainly: Anti-amoebic activity against trophozoites of Entamoeba histolytica HM-1:IMSS gassed with nitrogen for 10 mins measured after 72 hrs by eosin staining based micro dilution method. The data set is classed as functional.
The nature of data set [1]: Selectivity index, ratio of IC50 for cytotoxicity against HEK293 cells to IC50 for anti-malarial activity against chloroquine-sensitive Plasmodium falciparum NF54 infected in erythrocytes. It counts as toxicity, cell-based. The following applies: human; read-out: Ratio IC50.
Data set [2] is described as follows: Antioxidant activity assessed as inhibition of ferrous chloride-induced lipid peroxidation at 50 uM preincubated for 24 hrs followed by ferrous chloride addition relative to control. It counts as functional.
The test system of data set [3] is Anopheles arabiensis. Nature of the data set: Larvicidal activity against Anopheles arabiensis KGB at 0.5 uM measured after 24 hrs relative to control. The data set is classed as functional.
In another data set the test system is HEK293. Put plainly: Cytotoxicity against HEK293 cells measured after 48 hrs by MTT assay. The data set is classed as cell-based. The note with it: Homo sapiens, HEK293, 48 h.
In the next data set the test system is Plasmodium falciparum. Put plainly: Antimalarial activity against chloroquine-sensitive Plasmodium falciparum NF54 infected in erythrocytes measured after 48 hrs by Malstat/nitroblue tetrazolium/phenazine ethosulphate reagent based LDH assay. The data set is classed as functional, cell-based. The following applies: NF54, 48 h.
The test system of data set [4] is Anopheles arabiensis. Nature of the data set: Larvicidal activity against Anopheles arabiensis KGB measured after 24 hrs. The note with it: read-out: LD50 (the source's name). The data set is classed as functional.

Active and inactive are the calls of the source. The rule behind the calls is not given here. Some results are limits rather than exact numbers.

Turning to `O=C(CN1CCN(c2ccnc3cc(Cl)ccc23)CC1)Nc1ccc(F)cc1`, half-maximal inhibition with Entamoeba histolytica (IC50) required 410 nM.

With `COc1ccc(S(=O)(=O)N2CCC[C@@H]2C(=O)N2CCN(c3ccnc4cc(Cl)ccc34)CC2)cc1`, the selectivity ratio in data set [1] was found to be 14.3. Further, the inhibition in data set [2] was less than 1%. The outcome with Anopheles arabiensis [3] was inactive. The concentration for half-maximal inhibition (IC50) with HEK293 worked out at 57.7 µM; with Plasmodium falciparum, 4.02 µM; with Entamoeba histolytica it was 5730 nM.

The molecule `Clc1ccc(C(c2ccc(Cl)cc2)C(Cl)(Cl)Cl)cc1` [CHLOROPHENOTHANE] had an Activity in the data set on Anopheles arabiensis [3] of 100%. Further, the LC50 in the data set with Anopheles arabiensis [4] was found to be 500 nM.

On to `Cc1cc(C)c(S(=O)(=O)N2CCC[C@@H]2C(=O)N2CCN(c3ccnc4cc(Cl)ccc34)CC2)c(C)c1`, for which the selectivity ratio in data set [1] amounted to 0.75. Further, the inhibition in data set [2] was less than 1%. In addition, the outcome with Anopheles arabiensis [3] was inactive. For the same molecule, the IC50 in the data set with HEK293 amounted to 14.7 µM; in the data set on Plasmodium falciparum it was 19.6 µM; in the data set with Entamoeba histolytica, 140 nM.

As to `O=C([C@H]1CCCN1S(=O)(=O)c1cc(Cl)ccc1Cl)N1CCN(c2ccnc3cc(Cl)ccc23)CC1`, the selectivity ratio in data set [1] worked out at 9.02. Besides, the inhibition in data set [2] was less than 1%. In the data set with Anopheles arabiensis [3], the result was inactive. Also, the values for the IC50 in the data set on HEK293, in the data set with Plasmodium falciparum and in the data set with Entamoeba histolytica were 38 µM, 4.21 µM and 8890 nM, respectively.

For `C=C[C@H]1CN2CC[C@H]1C[C@H]2[C@H](O)c1ccnc2ccc(OC)cc12` [QUININE], the selectivity ratio in data set [1] was 1490. The IC50 in the data set with HEK293 turned out to be 276 µM; with Plasmodium falciparum, 0.18 µM.

Turning to `CCCS(=O)(=O)N1CCC[C@@H]1C(=O)N1CCN(c2ccnc3cc(Cl)ccc23)CC1`, the inhibition in data set [2] is less than 1%. The outcome in the data set with Anopheles arabiensis [3] was inactive. This molecule showed an IC50 in the data set with Entamoeba histolytica of 6910 nM.

Regarding `O=C([C@H]1CCCN1S(=O)(=O)c1ccccc1[N+](=O)[O-])N1CCN(c2ccnc3cc(Cl)ccc23)CC1`, in data set [1], the selectivity ratio is 14.2. Besides, in data set [2], the inhibition is less than 1%. In addition, in the data set with Anopheles arabiensis [3], the outcome was inactive. In addition, the IC50 in the data set on HEK293 was found to be 57.7 µM; in the data set with Plasmodium falciparum it was 4.08 µM; in the data set on Entamoeba histolytica, 2080 nM.

`O=C([C@H]1CCCN1S(=O)(=O)c1ccc(Cl)cc1)N1CCN(c2ccnc3cc(Cl)ccc23)CC1`: in data set [1], the selectivity ratio was 7.27. Besides, in data set [2], the inhibition is less than 1%. For the same molecule, the result in the data set on Anopheles arabiensis [3] was inactive. Besides, the IC50 in the data set with HEK293 was found to be 46 µM; in the data set with Plasmodium falciparum, 6.33 µM; with Entamoeba histolytica, 310 nM.

`CC(C)(C)c1ccc(S(=O)(=O)N2CCC[C@@H]2C(=O)N2CCN(c3ccnc4cc(Cl)ccc34)CC2)cc1`: the selectivity ratio in data set [1] was found to be 16.5. In data set [2], the inhibition was less than 1%. For the same molecule, the outcome in the data set with Anopheles arabiensis [3] was inactive. Also, the half-inhibitory concentration (IC50) in the data set on HEK293 was determined as 53.1 µM; in the data set on Plasmodium falciparum, 3.21 µM; with Entamoeba histolytica it was 770 nM.

On to `Cc1ccc(S(=O)(=O)N2CCC[C@@H]2C(=O)N2CCN(c3ccnc4cc(Cl)ccc34)CC2)cc1`, for which the selectivity ratio in data set [1] is 57.1. In addition, the inhibition in data set [2] is less than 1%. Besides, the result with Anopheles arabiensis [3] was inactive. Also, the IC50 with HEK293 is 81.2 µM; in the data set on Plasmodium falciparum it was 1.42 µM; with Entamoeba histolytica it was 340 nM.

Consider `O=C([C@H]1CCCN1S(=O)(=O)c1ccc2ccccc2c1)N1CCN(c2ccnc3cc(Cl)ccc23)CC1`, for which the selectivity ratio in data set [1] turned out to be 7.06. In addition, the inhibition in data set [2] was less than 1%. For the same molecule, the outcome in the data set with Anopheles arabiensis [3] was inactive. Further, the IC50 amounted to 24.4 µM with HEK293, 3.45 µM with Plasmodium falciparum and 340 nM in the data set with Entamoeba histolytica.

Regarding `O=C([C@H]1CCCN1S(=O)(=O)c1ccccc1)N1CCN(c2ccnc3cc(Cl)ccc23)CC1`, the selectivity ratio in data set [1] turned out to be 12. For the same molecule, the inhibition in data set [2] is less than 1%. The outcome in the data set with Anopheles arabiensis [3] was inactive. Besides, the IC50 in the data set on HEK293 stood at 64.1 µM; in the data set on Plasmodium falciparum it was 5.33 µM; with Entamoeba histolytica, 1260 nM.

In the case of `Cc1c(C)c2c(c(C)c1O)CCC(C)(C(=O)O)O2` (stereo unspecified), the inhibition in data set [2] was determined as 74%.

`O=C(CN1CCN(c2ccnc3cc(Cl)ccc23)CC1)NC1CCCCC1`: the half-inhibitory concentration (IC50) with Entamoeba histolytica was found to be 860 nM.

In turn, `CC[C@@]1(O)C(=O)OCc2c1cc1n(c2=O)Cc2cc3ccccc3nc2-1` [CAMPTOTHECIN] registered an IC50 with HEK293 of 0.01 µM.

What is called IC50 is the concentration at which inhibition is half-maximal. For orientation: inhibition means how much of the control response was suppressed.
